# Data as given in PubChem BioAssay AID588398 (Broad Institute, 2011).
# Inconclusive results are not listed.
# Assay: TES1-eGFP NF-kB reporter inhibition versus Tet-On dsRED, dose response, selectivity assay for LMP1 NF-kB inhibitor project, imaging, HEK293T, dual-color eGFP/dsRED, cherry-picks (AID 588398)
# Settings: 48 h, dsRED channel counter-screen
row,SMILES,AC50 [µM]
1,Oc1ccc2ccccc2c1N=Nc1ccccn1,7.53
2,CC1CCN(C(=O)/C(=C\c2cccs2)NC(=O)c2ccccc2)CC1,> 19.5
3,Cc1[nH]n(-c2ccc(Br)cc2)c(=O)c1/C=N/NC(=O)c1ccccc1,11.2
4,CNc1cccnc1C=NNC(N)=S,12.8
5,COc1ccc(-n2c(C)c([N+](=O)[O-])c3ccc(O)c(CN(C)C)c32)cc1,0.665
6,CC[C@]1(C(=O)OC)[C@H]2C(=O)N(Cc3ccccc3)C(=O)[C@H]2[C@H]2CN=C(SCc3ccc(Cl)cc3)N21,1.32
7,Cc1ccc(-c2csc(=Nc3cccnc3)n2CCCn2ccnc2)cc1C,5.1
8,CCN(CC)S(=O)(=O)c1ccc(N/N=C/c2ccc(O)cc2O)nc1,4.19
9,COc1ccc(N2Cc3ccccc3C2=O)cc1,> 19.5
10,Oc1ccc(C=NNC(=S)Nc2ccccc2)nc1,11.1
11,CS(=O)(=O)c1ccc(Sc2nc3ccccc3s2)c([N+](=O)[O-])c1,3.22
12,CN(CCNC(=O)C1CCN(S(=O)(=O)N2CCOCC2)CC1)CCc1ccccc1,> 19.5
13,CC(=NNC(=S)N1CC2CCC(CC2)C1)c1nccs1,4.15
14,O=C(N/N=C/c1cc2c3c(c1O)CCCN3CCC2)c1ccccc1O,8.25
15,Cc1cc(N2CCOCC2)c2c(N)c(Br)cc(C)c2n1,3.34
16,CCCC(=O)NC(c1ccc(C(C)C)cc1)c1ccc2cccnc2c1O (stereo not given),4.16
17,O=C(N/N=C/c1ccc[nH]1)c1ccc(COc2cccc3cccnc23)cc1,19.2
18,COc1cccc(/C=N/NC(=O)c2[nH]nc3c2CCc2ccccc2-3)c1O,5.87
19,COc1ccc(-c2csc(Nc3cccc(C)n3)n2)cc1OC,> 19.5
20,CCC(=O)NC(c1ccc(Cl)cc1Cl)c1ccc2cccnc2c1O (stereo not given),4.23
21,O=Cc1ccc(-c2cccs2)s1,2.71
22,O=[N+]([O-])c1ccc2ncnc(N3CCN(Cc4ccc5c(c4)OCO5)CC3)c2c1,2.87
23,Cc1ccc2[nH]c3c(c2c1)CCCC3NC(=O)CCl (stereo not given),3.25
24,Cc1nnc(SCC(=O)N2CCC(c3noc4ccc(F)cc34)CC2)s1,1.69
25,CCOC(=O)c1c(-n2cccc2)sc2c1CCCC2=O,11

row,SMILES,AC50 [µM]
1,COc1cccc(/C=N/Nc2ncnc(Cl)c2N)c1O,3.08
2,CC(=C/c1ccccc1)/C=N/n1c(-c2ccncc2)n[nH]c1=S,1.3
3,NC(=S)NN=Cc1nccc2c(C(F)(F)F)cccc12,4.06
4,Cc1ccccc1C(=O)N1CCN(c2ccc(NC(=O)CSc3ccc(Cl)cc3)cc2)CC1,0.253
5,c1nc(NCc2ccc3c(c2)OCO3)c2cc(-c3ccoc3)ccc2n1,1.56
6,COc1cc(C=C2CCCC(=Cc3ccc(OCC4CO4)c(OC)c3)C2=O)ccc1OCC1CO1 (stereo not given),8.08
7,CC(=O)NC(c1ccc(Cl)cc1Cl)c1ccc2cccnc2c1O (stereo not given),5.82
8,O=C(N/N=C/c1sc2ccccc2c1O)c1cccc2ccccc12,4.27
9,N#CC(C#N)=NNc1ccc(-n2ccc(C(F)(F)F)n2)cc1,6.47
10,OCCCNc1nccc(-c2cc(Nc3cccc(Cl)c3)ncn2)n1,4.72
11,O=C(Nc1ccc(C(=O)N2CCOCC2)cc1)Nc1cccc(C(F)(F)F)c1,0.966
12,C=C1C(=O)C2=CC1CCC(=O)C1(C)CCC(OC(C)=O)C(C)(C)C1CC2O (stereo not given),2.73
13,NC(=S)N/N=C/c1ncc(C(F)(F)F)cc1Cl,12.1
14,O=C(CF)N(O)c1ccc(C=Cc2ccccc2)cc1,1.51
15,CN1CCN(/N=C/c2ccc(N(c3ccccc3)c3ccccc3)cc2)CC1,0.505
16,CCOc1ccc(/C=C/[N+](=O)[O-])c2ccccc12,4.38
17,S=C(NN=Cc1ccccn1)Nc1ccccn1,> 19.5
18,N#CC(C#N)c1ccnc2ccccc12,6.14
19,Cc1nn(-c2ccccc2)c(Cl)c1C1C(C#N)=C(N)Oc2n[nH]c(C)c21 (stereo not given),11.5
20,CCCCC(=O)NC(c1ccc(OC)c(OC)c1)c1ccc2cccnc2c1O (stereo not given),13.6
21,CC1CC(C)C(=O)C(C(CC2CC(=O)NC(=O)C2)OC(=O)CC(=O)c2ccccc2)C1 (stereo not given),5.02
22,C/C(=N/NC(=O)c1ccc(C(C)(C)C)cc1)c1ccccn1,14.3
23,NC(=O)c1sc2nccc(Nc3ccccc3)c2c1N,4.04
24,CCN1CCN(Cc2ccc(NC(=O)c3ccc(C)c(NC(=O)c4ccno4)c3)cc2C(F)(F)F)CC1,0.0579
25,Cc1cc(=O)[nH]c(NN=Cc2cc(Br)ccc2O)n1,8.82

row,SMILES,AC50 [µM]
1,O=c1c(O)c(-c2ccc(O)c(O)c2)oc2cc(O)cc(O)c12,> 19.5
2,COc1ccc(-c2csc3ncnc(Sc4nnnn4C)c23)cc1,10.5
3,CN1C(=O)N(C)c2ccc(C=O)c3cccc1c23,12.9
4,CC(=NNC(=S)Nc1ccccc1)c1ccccn1,1.37
5,COC(=O)[C@@]1(C)[C@H]2C(=O)N(Cc3ccccc3)C(=O)[C@H]2[C@H]2CN=C(SCc3ccc(Cl)cc3)N21,2.41
6,COc1cccc(/C=N/Nc2nccnc2Cl)c1O,12.1
7,CC(C)(O)C#Cc1ccc([C@@H]2C[C@H]3CN(c4ccccc4)C(=O)[C@]34CCCN24)s1,14.9
8,COC(=O)[C@@]1(Cc2ccccc2)[C@H]2C(=O)N(Cc3ccccc3)C(=O)[C@H]2[C@H]2CN=C(SCc3ccc(Cl)cc3)N21,2.49
9,CCn1c2ccccc2c2cc(/C=N/NC(=O)c3ccncc3)ccc21,1.68
10,CCC(C)Nc1nc(-c2ccccn2)nc2ccccc12 (stereo not given),8.45
11,C=CCn1c(C)c(C(C)=O)c(N2CCN(C(c3ccccc3)c3ccccc3)CC2)nc1=S,> 19.5
12,CC[C@]1(C(=O)OC)[C@H]2C(=O)N(Cc3ccccc3)C(=O)[C@H]2[C@H]2CN=C(SCc3ccc(C#N)cc3)N21,2.82
13,NC(=S)NN=Cc1nccc2c(C(F)(F)C(F)(F)C(F)(F)F)cccc12,1.27
14,CCCN(CC)c1ncnc2[nH]ncc12,1.41
15,Cc1cc(C)n(-c2ccc(NN=C(C#N)C#N)cc2)n1,5.01
16,CCN(CC)c1ccc(/C=N/NC(=O)c2ccc3nc[nH]c3c2)c(O)c1,16.9
17,CC1=C(C(=O)OCc2ccc3c(c2)OCO3)C(c2ccc(Cl)cc2)NC(=O)N1 (stereo not given),0.1
18,O=C(N/N=C/c1c(O)ccc2ccccc12)c1cccnc1,4.3
19,C#CCN(C[C@@H]1[C@@H](OC(=O)NCc2ccccc2F)[C@@H](OC(=O)NCc2ccccc2F)Cn2c(=O)ccc(=O)n21)S(=O)(=O)c1ccc(C)cc1,3.9
20,CC1Cc2ccccc2N1c1ncnc(N)c1[N+](=O)[O-] (stereo not given),0.411
21,N#Cc1ncc(N=Cc2ccc(N(CCCl)CCCl)cc2)s1,12.6
22,C#CCN(C[C@@H]1[C@@H](OC(=O)NCC2CCCCC2)[C@@H](OC(=O)NCC2CCCCC2)Cn2c(=O)ccc(=O)n21)S(=O)(=O)c1ccc(C)cc1,2.83
23,COc1ccc(-c2csc3ncnc(NCCCO)c23)cc1,4.81
24,O=C(N/N=C/c1ccc(O)cc1O)c1ccc(CN2C(=O)c3cccc4cccc2c34)cc1,12.7
25,COc1ccc(-n2c(C)c(C(C)=O)c3cc(OC(C)=O)ccc32)cc1,1

row,SMILES,AC50 [µM]
1,CC(=NNc1nc2ccccc2o1)c1ncccn1,1.13
2,c1ccc(C(=NNc2nc3ccccc3s2)c2ccccn2)cc1,1.48
3,C[n+]1c2n(c3ccccc31)N=C(c1cc(C(C)(C)C)c(O)c(C(C)(C)C)c1)CS2,10.8
4,O=C(c1ccccc1)C(CCC(CN1CCOCC1)C(=O)c1ccccc1)CN1CCOCC1 (stereo not given),1.99
5,CC(=NNc1nc2ccccc2o1)c1cc2ccccc2cn1,3.99
6,CCCC(=O)NC(c1ccc(C)cc1)c1ccc2cccnc2c1O (stereo not given),4.12
7,CCn1c2ccccc2c2cc(/C=N/NC(=O)c3cc(O)cc(O)c3)ccc21,2.14
8,COc1cc([C@@H]2c3cc4c(cc3[C@@H](O[C@@H]3O[C@@H]5CO[C@@H](C)O[C@H]5[C@H](O)[C@H]3O)[C@H]3COC(=O)[C@H]23)OCO4)cc(OC)c1O,14.5
9,CC(=NNc1nc2ccccc2s1)c1ncccn1,7.33
10,O=S(=O)(c1ccc2c(c1)C(=NO)c1cc(S(=O)(=O)N3CCCCC3)ccc1-2)N1CCCCC1,> 19.5
11,O=C(NN=Cc1ccc(N(CCCl)CCCl)cc1Cl)c1cccnc1,1.58
12,CCOc1ccc(Nc2ncnc3ccc([N+](=O)[O-])cc23)cc1,1.93
13,COc1ccc(N/N=C/c2c(C(=O)O)ccc3ccccc23)cc1,12.4
14,COc1ccc(C=C2CS(=O)(=O)CC(=Cc3ccc(OC)cc3)C2=O)cc1,1.61
15,COc1cccc(/C=N/Nc2nc3ccccc3[nH]2)c1O,12
16,Cc1nn(-c2ccccc2)c(Cl)c1C(=O)N1CCN(c2ncnc3c2cnn3-c2ccccc2)CC1,12.9
17,CC(=O)NC(c1ccc(Cl)cc1)c1ccc2cccnc2c1O (stereo not given),4.14
18,CCC(=O)NC(c1cc(Cl)c2cccnc2c1O)C1CC1 (stereo not given),13
19,Cc1cc(C)nc(N/C(=N\S(=O)(=O)Cc2ccccc2)Nc2ccccc2Br)n1,18.1
20,Cc1ccc(C(=O)Nc2cccc(C(F)(F)F)c2)cc1Nc1ncnc2nc[nH]c12,9.97
21,CCOC(=O)/C=C(\C)Sc1cc(=O)oc2ccccc12,8.75
22,CCC(=O)NC(c1ccc(C)cc1)c1ccc2cccnc2c1O (stereo not given),3.61
23,CCn1c2ccccc2c2cc(/C=N/n3c(-c4cc(C)[nH]n4)n[nH]c3=S)ccc21,0.862
24,CC(=NNC(=S)Nc1ccccc1Cl)c1ccccn1,1.37
25,CC(=NNC(=S)N1CCCC1)c1ccccn1,17.8
